Like-named read-outs stand apart in the source and are kept apart here.
Experiments:
[1] = tested on: Abeta oligomer-induced membrane trafficking deficits in primary hippocampal neurons; assay: Membrane Trafficking/Exocytosis (MTT) assay, Abeta oligomer effect on neurons; type: cell-based, rat;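 on EC50 Abeta: compound potency for inhibiting the Abeta oligomer effect on exocytosis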
Protocol: Compounds according to any embodiment described herein, were tested for their ability to inhibit an amyloid beta effect on the cells. The compounds generally were able to inhibit the amyloid beta effect as measured by a membrane trafficking/exocytosis assay (MTT assay). The rationale for this assay was as follows:
The present exocytosis assay was adapted for use with mature primary neuronal cultures grown for 3 weeks in vitro. See WO 2011/106785, which is incorporated herein by reference in its entirety. Abeta oligomers cause a dose-dependent decrease in the amount of intracellular vesicles (puncta) filled with reduced purple formazan as measured via image processing using a Cellomics VTI automated microscopy system. […] Increasing the amount of Abeta oligomers eventually results in overt toxicity. Thus, the concentration of neuroactive Abeta oligomers used in the assay is much lower than that causing cell death. […] When configured in this manner, the assay is able to detect compounds that inhibit nonlethal effects of Abeta oligomer whether these compounds act via disruption of oligomers, inhibition of oligomer binding to neurons, or counteraction of signal transduction mechanisms of action initiated by oligomer binding.
Primary hippocampal neurons from E18 Sprague-Dawley rat embryos were plated at optimized concentrations in 384 well plates in NB media (Invitrogen). Neurons were maintained in cultures for 3 weeks, with twice weekly feeding of NB media with N2 supplement (Invitrogen).
A test compound was added to cells at concentrations ranging from 100 uM to 0.001 nM followed by addition of vehicle or Abeta oligomer preparations (3 μM total Abeta protein concentration), and incubated for 1 to 24 hr at 37° C. in 5% CO2. MTT reagent (3-(4,5-dimethylthizaol-2yl)-2,5diphenyl tetrazolium bromide) (Roche Molecular Biochemicals) was reconstituted in phosphate buffered saline to 5 mg/mL. 10 μL of MTT labeling reagent is added to each well and incubated at 37° C. for 1 h, then imaged. Exocytosis was assessed by automated microscopy and image processing to quantify the amount of endocytosed and exocytosed formazan.
Each assay plate was formatted so that compounds are tested with and without Abeta oligomer on each plate. This design eliminates toxic or metabolically active compounds early on in the screening cascade (at the level of the primary screen). Reduced formazan was first visible in intracellular vesicles. Eventual formazan exocytosis was accelerated via Abeta oligomers.
Human amyloid peptide 1-42 was obtained from a number of commercial vendors such as California Peptide, with lot-choice contingent upon quality control analysis. Quality controls of oligomer preparations consist of Westerns to determine oligomer size ranges and relative concentrations, and the MTT assay to confirm exocytosis acceleration without toxicity. Toxicity was monitored in each image-based assay via quantification of nuclear morphology visualized with the DNA binding blue dye DAPI (Invitrogen). Nuclei that are fragmented are considered to be in late stage apoptosis (Majno and Joris '95) and the test would be rejected. Peptide lots producing unusual peptide size ranges or significant toxicity at a standard 1.5 μM concentration on neurons would also be rejected.
Data handling and analysis were accomplished by Cellomics VTI image analysis software and STORE automated database software. Because of the low dynamic range and neuronal well-to-well variability after three weeks in culture, statistical comparisons are made via pairwise Tukey-Kramer analysis to determine the significance of the separation between compound+Abeta oligomers from Abeta alone, and between compound alone from vehicle. The ability of mature primary neurons to more closely approximate the electrophysiologically mediated signal transduction network of the adult brain justifies this screening strategy. […]

[2] = log P; type: physicochemical
How it was run: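 Ratio of un-ionized compound concentrations between octanol and water, with aqueous pH set so the un-ionized form predominates. Value given as the log of the octanol/water ratio.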

[3] = membrane trafficking, read-out: EC50 Abeta

Row | Compound | EC50 [1, 3] | log P [2] | also measured
1 | CC(C)=CC(CC(C)(C)c1ccc(C(F)(F)F)cc1)N1CCC(Oc2ccccc2)CC1 (stereo not drawn) [Compound 128] | 20 µM | 7.19 | –
2 | CC(C)=CC(CC(C)(C)c1ccc(Cl)cc1)N1CCC(N2CCCCC2)CC1 (stereo not drawn) [Compound 146] | 0.025 µM | 6.14 | –
3 | COCCCC1CCN(C(C=C(C)C)CC(C)(C)c2ccc(N3CCOCC3)cc2)CC1 (stereo not drawn) [Compound 140] | 20 µM | 5.78 | –
4 | Synthetic Abeta oligomers: Abeta 1-42 oligomers made according to published methods, used as positive controls [reference compound] | – | – | EC50 ([1]; Abeta oligomers dosed alone on neurons, read-out: EC50 in the membrane trafficking assay): 0.82 µM
5 | COc1cc(CCC(C)(C)N2Cc3cccc(C(=O)N4CCN(C(=O)Oc5ccccc5)CC4)c3C2)ccc1O [Compound 256] | 15 µM | 5.01 | –
6 | CC(C)=CC(CC(C)(C)c1ccc(N2CCOCC2)cc1)N1CCC(O)CC1 (stereo not drawn) [Compound 150] | 20 µM | 3.86 | –
7 | CC(C)=C[C@@H](CC(C)(C)c1ccc(C(F)(F)F)cc1)N1CCC(C2CCOCC2)CC1 [Example 262] | – | – | EC50 ([1]; Rattus norvegicus, Hippocampal neuron, membrane trafficking, read-out: EC50 Abeta): 1.85 µM; logP ([2]; octanol/water): 6.58
8 | CC(C)=CC(CC(C)(C)c1ccc(N2CCOCC2)cc1)N1CCC(C(F)(F)F)CC1 (stereo not drawn) [Compound 143] | 20 µM | 5.96 | –
9 | CCCCC1(OC(=O)NC(C)C)CCN(C(C=C(C)C)CC(C)(C)c2ccc(F)cc2)CC1 (stereo not drawn) [Compound 226] | 1.25 µM | 6.91 | –
10 | CC(C)=CC(CC(C)(C)c1ccc(C(F)(F)F)cc1)N1CCC(N2CCOCC2)CC1 (stereo not drawn) [Compound 137] | 0.15 µM | 5.34 | –
11 | CC(C)=CC(CC(C)(C)c1ccc(F)cc1)N1CCC(CCOC(C)C)CC1 (stereo not drawn) [Compound 159] | 10 µM | 6.36 | –
12 | CC(C)=CC(CC(C)(C)c1ccc(Cl)cc1)N1CCN(C(=O)C2CC2)CC1 (stereo not drawn) [Compound 152] | 0.26 µM | 5.11 | –
13 | COCCOCCC1CCN(C(C=C(C)C)CC(C)(C)c2ccc(F)cc2)CC1 (stereo not drawn) [Compound 163] | 15 µM | 5.54 | –
14 | COCCOCCC1CCN(C(C=C(C)C)CC(C)(C)c2ccc(Cl)cc2)CC1 (stereo not drawn) [Compound 162] | 15 µM | 6 | –
15 | CC(C)=CC(CC(C)(C)c1ccc(C(F)(F)F)cc1)N1CCN(S(C)(=O)=O)CC1 (stereo not drawn) [Compound 161] | 0.27 µM | 4.1 | –
16 | CC(C)=CC(CC(C)(C)c1ccc(Cl)cc1)N1CCC(N2CCCC2)CC1 (stereo not drawn) [Compound 135] | 20 µM | 5.69 | –
17 | CC(C)=CC(CCc1ccc(F)cc1)N1CCOCC1 (stereo not drawn) [Compound 91] | 20 µM | 3.99 | –
18 | CC(C)=CC(CC(C)(C)c1ccc(F)cc1)N1CCC(Oc2ccccc2)CC1 (stereo not drawn) [Compound 124] | 0.2 µM | 6.45 | –
19 | COc1ccc(C(C)(C)CC(NCC2CCOCC2)c2ccccc2)cc1 (stereo not drawn) [Compound 115] | 20 µM | 4.9 | –
20 | COC1CCN(C(C=C(C)C)CC(C)(C)c2ccc(Cl)cc2)CC1 (stereo not drawn) [Compound 142] | 20 µM | 5.22 | –
21 | CC(C)=CC(CCc1ccc(F)cc1)N1CCCCC1 (stereo not drawn) [Compound 92] | 20 µM | 5.06 | –
22 | CC(C)=CC(CC(C)(C)c1ccc(N2CCOCC2)cc1)N1CCC(C2CCOCC2)CC1 (stereo not drawn) [Compound 149] | 20 µM | 5.59 | –
23 | CC(C)=CC(CC(C)(C)c1ccc(F)cc1)N1CCC(C)(C)CC1 (stereo not drawn) [Compound 131] | 20 µM | 6.24 | –
24 | CC(C)=CC(CC(C)(C)c1ccc(Cl)cc1)N1CCN(S(C)(=O)=O)CC1 (stereo not drawn) [Compound 156] | 0.34 µM | 3.83 | –

Row | Compound | EC50 [1, 3] | log P [2] | also measured
25 | CC(C)=CC(CC(C)(C)c1ccc(C(F)(F)F)cc1)N1CCC(N2CCCC2)CC1 (stereo not drawn) [Compound 130] | 0.3 µM | 5.97 | –
26 | CC(C)=CC(CC(C)(C)c1ccc(Cl)cc1)N1CCC(OC(C)C)CC1 (stereo not drawn) [Compound 158] | 2.88 µM | 5.99 | –
27 | CC(C)=C[C@H](CC(C)(C)c1ccc(C(F)(F)F)cc1)N1CCC(C2CCOCC2)CC1 [Compound 261] | 0.73 µM | 6.58 | –
28 | COCCCC1CCN(C(C=C(C)C)CC(C)(C)c2ccc(F)cc2)CC1 (stereo not drawn) [Compound 139] | 20 µM | 6.03 | –
29 | CC(C)=CC(CC(C)(C)c1ccc(F)cc1)N1CCN(C(=O)C2CC2)CC1 (stereo not drawn) [Compound 151] | 20 µM | 4.65 | –
30 | CC(C)=CC(CC(C)(C)c1ccc(C(F)(F)F)cc1)N1CCC(F)CC1 (stereo not drawn) [Compound 141] | 1.6 µM | 5.74 | –
31 | COC[C@H]1CCCN1C(C)CC(C)(C)c1ccc(Cl)cc1 (stereo partly drawn) [Compound 253] | 0.25 µM | 4.67 | –
32 | CC(C)=CC(CC(C)(C)c1ccc(Cl)cc1)N1CCC(C(C)C)CC1 (stereo not drawn) [Compound 87] | 20 µM | 7.13 | –
33 | CC(C)=CC(CC(C)(C)c1ccc(F)cc1)N1CCC(N2CCCC2)CC1 (stereo not drawn) [Compound 125] | 0.25 µM | 5.23 | –
34 | COc1cc(CCC(C)NCc2ccc(C(F)(F)F)cc2)ccc1O (stereo not drawn) [4-(3-(4-(trifluoromethyl)benzylamino)butyl)-2-methoxyphenol, reference compound] | – | – | effect on membrane trafficking deficits induced by AD brain-derived Abeta oligomers ([1]; AD brain-derived Abeta oligomers): eliminates the membrane trafficking deficits; effect on trafficking when dosed in the absence of Abeta ([1]; substance alone, no Abeta oligomer): does not affect trafficking
35 | COC1CCN(C(C=C(C)C)CC(C)(C)c2ccc(F)cc2)CC1 (stereo not drawn) [Compound 145] | 20 µM | 4.76 | –
36 | CC(CC(C)(C)c1ccc(Cl)cc1)N1CCC(O)C1 (stereo not drawn) [Compound 255] | 15 µM | – | –
37 | COc1ccc(C(C)(C)CC(C=C(C)C)N2CCC(C(C)C)CC2)cc1 (stereo not drawn) [Compound 86] | 0.22 µM | 6.37 | –
38 | CC(C)=CC(CC(C)(C)c1ccc(F)cc1)N1CCC(N2CCCCC2)CC1 (stereo not drawn) [Compound 133] | 2.2 µM | 5.68 | –
39 | CC(C)=CC(CC(C)(C)c1ccc(N2CCOCC2)cc1)N1CCC(CCO)CC1 (stereo not drawn) [Compound 144] | 20 µM | 4.69 | –
40 | CC(C)=CC(CC(C)(C)c1ccc(Cl)cc1)N1CCC(C(F)(F)F)CC1 (stereo not drawn) [Compound 123] | 0.3 µM | 6.67 | –
41 | COCCCC1CCN([C@@H](C=C(C)C)CC(C)(C)c2ccc(Cl)cc2)CC1 [Compound 292] | 1.6 µM | 6.49 | –
42 | CC(C)=CC(CC(C)(C)c1ccc(F)cc1)N1CCC(F)CC1 (stereo not drawn) [Compound 134] | 20 µM | 5.01 | –
43 | CC(C)=CC(CC(C)(C)c1ccc(Cl)cc1)N1CCC(c2ccnc(N(C)C)c2)CC1 (stereo not drawn) [Compound 90] | 20 µM | 7.02 | –
44 | CC(C)=CC(CC(C)(C)c1ccc(Cl)cc1)N1CCC(CCOC(C)C)CC1 (stereo not drawn) [Compound 160] | 15 µM | 6.82 | –
45 | CC(C)=CC(CC(C)(C)c1ccc(Cl)cc1)N1CCC(N2CCOCC2)CC1 (stereo not drawn) [Compound 138] | 0.45 µM | 5.07 | –
46 | CC(C)=CC(CC(C)(C)c1ccc(F)cc1)N1CCN(C(=O)c2ccccc2)CC1 (stereo not drawn) [Compound 153] | 0.5 µM | 5.73 | –
47 | CC(C)=CC(CC(C)(C)c1ccc(Cl)cc1)N1CCC(Oc2ccccc2)CC1 (stereo not drawn) [Compound 132] | 20 µM | 6.91 | –
48 | CC(C)=CC(CC(C)(C)c1ccc(Cl)cc1)N1CCN(C(=O)c2ccccc2)CC1 (stereo not drawn) [Compound 157] | – | 6.19 | –

Source: patent US11214540B2, “Compositions for treating neurodegenerative diseases” (COGNITION THERAPEUTICS, INC., priority 2017, dated 2022)
